How the values were obtained:
[1] = biological target: T1, melanin concentrating hormone receptor (MCHR) (Homo sapiens, UniProt Q99705); assay: Ca++-mobilization assay using I3.4.2 cells (FLIPR); assay type: cell-based; conditions: for inhibition of MCH-stimulated intracellular Ca++-flux: T42402I3.4.2 cell line, FIG. 3
T1 construct: endogenous in cells; host or cells: T42402I3.4.2 (I3.4.2) cells, ATCC PTA-5201, derived from IMR32 (ATCC CCL-127) by transfection of a Galpha16/Zeocin-resistance plasmid
T1 sequence (Q99705 whole entry): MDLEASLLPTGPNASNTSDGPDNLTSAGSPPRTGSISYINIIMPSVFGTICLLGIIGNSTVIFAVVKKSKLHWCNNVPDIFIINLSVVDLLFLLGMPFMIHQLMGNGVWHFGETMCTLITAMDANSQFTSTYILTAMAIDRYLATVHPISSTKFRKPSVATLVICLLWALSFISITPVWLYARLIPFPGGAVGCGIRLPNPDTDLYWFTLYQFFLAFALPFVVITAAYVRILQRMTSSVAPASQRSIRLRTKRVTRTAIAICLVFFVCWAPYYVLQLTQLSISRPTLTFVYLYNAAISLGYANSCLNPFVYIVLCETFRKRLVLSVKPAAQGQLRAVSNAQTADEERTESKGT
Procedure: The following day, Zeocin (Invitrogen, Carlsbad, Calif.) was added to a final concentration of 20 μg/ml. Cells were maintained in this medium with periodic replacement until discrete colonies were observed. Individual colonies were isolated and propagated until sufficiently large cell populations were obtained such that the cell samples could be cryopreserved.
This intracellular calcium release is measured using a fluorometeric imaging plate reader (FLIPR™, Molecular Devices Corp., Sunnyvale, Calif.) in conjunction with the Ca^++-sensitive dye reagent (Calcium Assay Reagent, Molecular Devices Corp., Sunnyvale, Calif.). Release of Ca^++ from intracellular stores causes an increase in fluorescence of the dye that is proportional to Ca^++ concentration. Thus, this method may be utillized to identify agonist-s, antagonists, and inverse agonists of MCHR1.
In particular, the assay is carried out as follows: The cells are cultured in MEM/10% fetal bovine serum/50 μg/mL gentamicin/200 μg/ml Zeocin. […] Calcium Assay Reagent fluorescence is measured at 488 nm, with an exposure of 0.40 sec. and F-stop=2.0 and the laser set at 0.20-0.40 W constant light output.

MCHR1 [2] = biological target: T2, MCHR1 (Homo sapiens, UniProt Q99705); conditions: literature (Takekawa et al. 2002; Borowsky et al. 2002); cited from earlier work
T2 sequence (Q99705 whole entry, species assumed): as the sequence (Q99705 whole entry) above

MCHR1 [3] = biological target: T2, MCHR1; conditions: literature (Takekawa et al. 2002; Borowsky et al. 2002); cited from earlier work; remark: listed apart in the source

inhibition of MCH-stimulated intracellular Ca++-flux [1] | SMILES | MCH-induced response (fluorescence) ([1]; MCH 1 μM, baseline approximately 700 RFU) | inhibition of activation of intracellular signaling by MCH (MCHR1 [2]) | inhibition of binding of 125I-labeled MCH to MCHR1 (MCHR1 [3])
– | CSCC[C@@H]1NC(=O)[C@@H](NC(=O)[C@H](CCCNC(=N)N)NC(=O)[C@H](CC(C)C)NC(=O)[C@H](CCSC)NC(=O)[C@H](CC(=O)O)NC(=O)[C@H](Cc2ccccc2)NC(=O)[C@@H](N)CC(=O)O)CSSC[C@@H](C(=O)N[C@@H](Cc2c[nH]c3ccccc23)C(=O)N[C@@H](CCC(N)=O)C(=O)N[C@H](C(=O)O)C(C)C)NC(=O)[C@@H]2CCCN2C(=O)[C@H](CCCNC(=N)N)NC(=O)[C@H](Cc2ccc(O)cc2)NC(=O)[C@H](C(C)C)NC(=O)[C@H](CCCNC(=N)N)NC(=O)CNC(=O)[C@H](CC(C)C)NC1=O [MCH, melanin-concentrating hormone] | 5,000-6,000 relative fluorescence units (RFU) | – | –
inhibited | COCC1=C(C(=O)OC)[C@H](c2ccc(F)c(F)c2)N(C(=O)NCCCN2CCC(c3cccc(NC(C)=O)c3)CC2)C(=O)N1 [SNAP-7941] | – | inhibit | inhibit binding
inhibited | CN(C)CC1CCc2cc(NC(=O)c3ccc(-c4ccc(F)cc4)cc3)ccc2C1 (stereo not shown) [T-226296] | – | inhibit | inhibit binding
